Experimental data reported in patent publication US4335249A, “Herbicidal diphenyl ethers, sulfides, sulfoxides and sulfones” (Rohm and Haas Company, priority 1976, dated 1982).

How the values were obtained:
Format in all cases: in vivo
[1] = tested on: barnyardgrass (Echinochloa crusgalli); experiment: Preemergence herbicidal activity, barnyardgrass; conditions: Echinochloa crus-galli, pre-emergence, 336 h, Pre
Protocol: (§1) Using the procedure described below, compounds of the invention are evaluated for control of several of the following plant species:
(§2) The following est procedure is employed. Seeds of selected crops and weeds are planted in soil in flats. For preemergence tests, the flats are treated with the test compound immediately after the planting. For postemergence tests, the seeds are allowed to germinate, and after two weeks the flats are treated with the test compound. The compound to be evaluated is dissolved in acetone, diluted with water, and sprayed over the flats using a carrier volume equivalent to 50 gallons per acre at the rate of application (pounds per acre, lb/A.) specified in the tables.

[2] = tested on: foxtail (Setaria spp.); experiment: Preemergence herbicidal activity, foxtail; conditions: Setaria, pre-emergence, 336 h, Pre
Protocol: as §1
as §2, with “tables. About two weeks after the application of the test compound, the state of growth of the plants is observed and the phytotoxic effect of the compound is evaluated. Tables III and IV give the average percent control achieved by test compounds in terms of the percent of the plants which are killed by the compounds.” for “tables.”

[3] = tested on: velvetleaf (Abutilon theophrasti); experiment: Preemergence herbicidal activity, velvetleaf; conditions: Abutilon theophrasti, pre-emergence, 336 h, Pre
Protocol: as §1
as §2, with “tables. About two weeks after the application of the test compound, the state of growth of the plants is observed and the phytotoxic effect of the compound is evaluated. Tables III and IV give the average percent control achieved by test compounds in terms of the percent of the plants which are killed by the compounds.” for “tables.”

[4] = tested on: tomato (Lycopersicon esculentum); experiment: Preemergence herbicidal activity, tomato; conditions: Solanum lycopersicum, pre-emergence, 336 h, Pre
Protocol: as §1
as §2, with “tables. About two weeks after the application of the test compound, the state of growth of the plants is observed and the phytotoxic effect of the compound is evaluated. Tables III and IV give the average percent control achieved by test compounds in terms of the percent of the plants which are killed by the compounds.” for “tables.”

[5] = tested on: cocklebur (Xanthium pensylvanicum); experiment: Postemergence herbicidal activity, cocklebur; conditions: Xanthium strumarium, post-emergence, 336 h
Protocol: as §1
as §2, with “tables. About two weeks after the application of the test compound, the state of growth of the plants is observed and the phytotoxic effect of the compound is evaluated. Tables III and IV give the average percent control achieved by test compounds in terms of the percent of the plants which are killed by the compounds.” for “tables.”

[6] = tested on: downybrome (Bromus tectorum); experiment: Postemergence herbicidal activity, downybrome; conditions: Bromus tectorum, post-emergence, 336 h, Post
Protocol: as §1
as §2, with “tables. About two weeks after the application of the test compound, the state of growth of the plants is observed and the phytotoxic effect of the compound is evaluated. Tables III and IV give the average percent control achieved by test compounds in terms of the percent of the plants which are killed by the compounds.” for “tables.”

[7] = tested on: marigold (Tagetes spp.); experiment: Preemergence herbicidal activity, marigold; conditions: pre-emergence, 336 h
Protocol: as §1
as §2, with “tables. About two weeks after the application of the test compound, the state of growth of the plants is observed and the phytotoxic effect of the compound is evaluated. Tables III and IV give the average percent control achieved by test compounds in terms of the percent of the plants which are killed by the compounds.” for “tables.”

[8] = tested on: foxtail (Setaria spp.); experiment: Postemergence herbicidal activity, foxtail; conditions: Setaria, post-emergence, 336 h, Post
Protocol: as §1
as §2, with “tables. About two weeks after the application of the test compound, the state of growth of the plants is observed and the phytotoxic effect of the compound is evaluated. Tables III and IV give the average percent control achieved by test compounds in terms of the percent of the plants which are killed by the compounds.” for “tables.”

[9] = tested on: yellow nutsedge (Cyperus esculentus); experiment: Preemergence herbicidal activity, yellow nutsedge; conditions: Cyperus, pre-emergence, 336 h
Protocol: as §1
as §2, with “tables. About two weeks after the application of the test compound, the state of growth of the plants is observed and the phytotoxic effect of the compound is evaluated. Tables III and IV give the average percent control achieved by test compounds in terms of the percent of the plants which are killed by the compounds.” for “tables.”

[10] = tested on: downybrome (Bromus tectorum); experiment: Preemergence herbicidal activity, downybrome; conditions: Bromus tectorum, pre-emergence, 336 h, Pre
Protocol: as §1
as §2, with “tables. About two weeks after the application of the test compound, the state of growth of the plants is observed and the phytotoxic effect of the compound is evaluated. Tables III and IV give the average percent control achieved by test compounds in terms of the percent of the plants which are killed by the compounds.” for “tables.”

[11] = tested on: tomato (Lycopersicon esculentum); experiment: Postemergence herbicidal activity, tomato; conditions: Solanum lycopersicum, post-emergence, 336 h, Post
Protocol: as §1
as §2, with “tables. About two weeks after the application of the test compound, the state of growth of the plants is observed and the phytotoxic effect of the compound is evaluated. Tables III and IV give the average percent control achieved by test compounds in terms of the percent of the plants which are killed by the compounds.” for “tables.”

[12] = tested on: morningglory (Ipomoca spp.); experiment: Preemergence herbicidal activity, morningglory; conditions: Ipomoea, pre-emergence, 336 h
Protocol: as §1
as §2, with “tables. About two weeks after the application of the test compound, the state of growth of the plants is observed and the phytotoxic effect of the compound is evaluated. Tables III and IV give the average percent control achieved by test compounds in terms of the percent of the plants which are killed by the compounds.” for “tables.”

[13] = tested on: velvetleaf (Abutilon theophrasti); experiment: Postemergence herbicidal activity, velvetleaf; conditions: Abutilon theophrasti, post-emergence, 336 h
Protocol: as §1, §2

[14] = tested on: wild oats (Avena fatua); experiment: Postemergence herbicidal activity, wild oats; conditions: Avena fatua, post-emergence, 336 h, Post, read-out: % control, Wild oat
Protocol: as §1
as §2, with “tables. About two weeks after the application of the test compound, the state of growth of the plants is observed and the phytotoxic effect of the compound is evaluated. Tables III and IV give the average percent control achieved by test compounds in terms of the percent of the plants which are killed by the compounds.” for “tables.”

[15] = tested on: yellow nutsedge (Cyperus esculentus); experiment: Postemergence herbicidal activity, yellow nutsedge; conditions: Cyperus, post-emergence, 336 h
Protocol: as §1
as §2, with “tables. About two weeks after the application of the test compound, the state of growth of the plants is observed and the phytotoxic effect of the compound is evaluated. Tables III and IV give the average percent control achieved by test compounds in terms of the percent of the plants which are killed by the compounds.” for “tables.”

[16] = tested on: morningglory (Ipomoca spp.); experiment: Postemergence herbicidal activity, morningglory; conditions: Ipomoea, post-emergence, 336 h
Protocol: as §1
as §2, with “tables. About two weeks after the application of the test compound, the state of growth of the plants is observed and the phytotoxic effect of the compound is evaluated. Tables III and IV give the average percent control achieved by test compounds in terms of the percent of the plants which are killed by the compounds.” for “tables.”

[17] = tested on: wild oats (Avena fatua); experiment: Preemergence herbicidal activity, wild oats; conditions: Avena fatua, pre-emergence, 336 h, Pre, read-out: % control, Wild oat
Protocol: as §1
as §2, with “tables. About two weeks after the application of the test compound, the state of growth of the plants is observed and the phytotoxic effect of the compound is evaluated. Tables III and IV give the average percent control achieved by test compounds in terms of the percent of the plants which are killed by the compounds.” for “tables.”

[18] = tested on: cocklebur (Xanthium pensylvanicum); experiment: Preemergence herbicidal activity, cocklebur; conditions: Xanthium strumarium, pre-emergence, 336 h
Protocol: as §1
as §2, with “tables. About two weeks after the application of the test compound, the state of growth of the plants is observed and the phytotoxic effect of the compound is evaluated. Tables III and IV give the average percent control achieved by test compounds in terms of the percent of the plants which are killed by the compounds.” for “tables.”

[19] = tested on: barnyardgrass (Echinochloa crusgalli); experiment: Postemergence herbicidal activity, barnyardgrass; conditions: Echinochloa crus-galli, post-emergence, 336 h, Post
Protocol: as §1, §2

[20] = tested on: marigold (Tagetes spp.); experiment: Postemergence herbicidal activity, marigold; conditions: post-emergence, 336 h
Protocol: as §1
as §2, with “tables. About two weeks after the application of the test compound, the state of growth of the plants is observed and the phytotoxic effect of the compound is evaluated. Tables III and IV give the average percent control achieved by test compounds in terms of the percent of the plants which are killed by the compounds.” for “tables.”

**Q.** With `CC(Oc1ccc(Oc2ccc(C(F)(F)F)cc2Cl)cc1)C(=O)OC(C)(C)C` (stereo not shown) [Example 35] as the compound, how does the pest or weed control at 2241.7 g/ha ([1]; 2 lb/A) read?
**A.** 99%

**Q.** What about the pest or weed control at 2241.7 g/ha ([2]; 2 lb/A) of the same compound?
**A.** 100%

**Q.** What about the pest or weed control at 2241.7 g/ha ([3]; 2 lb/A) of the same compound?
**A.** 0%

**Q.** What about the pest or weed control at 2241.7 g/ha ([4]; 2 lb/A) of the same compound?
**A.** 0%

**Q.** And the pest or weed control at 2241.7 g/ha ([5]; 2 lb/A)?
**A.** 0%

**Q.** What about the pest or weed control at 2241.7 g/ha ([6]; 2 lb/A) of the same compound?
**A.** 0%

**Q.** And the pest or weed control at 2241.7 g/ha ([7]; 2 lb/A)?
**A.** 0%

**Q.** What about the pest or weed control at 2241.7 g/ha ([8]; 2 lb/A) of the same compound?
**A.** 100%

**Q.** What about the pest or weed control at 2241.7 g/ha ([9]; 2 lb/A) of the same compound?
**A.** 0%

**Q.** What about the pest or weed control at 2241.7 g/ha ([10]; 2 lb/A) of the same compound?
**A.** 0%

**Q.** What about the pest or weed control at 2241.7 g/ha ([11]; 2 lb/A) of the same compound?
**A.** 0%

**Q.** What about the pest or weed control at 2241.7 g/ha ([12]; 2 lb/A) of the same compound?
**A.** 0%

**Q.** What about the pest or weed control at 2241.7 g/ha ([13]; 2 lb/A) of the same compound?
**A.** 0%

**Q.** And the pest or weed control at 2241.7 g/ha ([14]; 2 lb/A)?
**A.** 0%

**Q.** And the pest or weed control at 2241.7 g/ha ([15]; 2 lb/A)?
**A.** 0%

**Q.** And the pest or weed control at 2241.7 g/ha ([16]; 2 lb/A)?
**A.** 0%

**Q.** And the pest or weed control at 2241.7 g/ha ([17]; 2 lb/A)?
**A.** 0%

**Q.** What about the pest or weed control at 2241.7 g/ha ([18]; 2 lb/A) of the same compound?
**A.** 0%

**Q.** And the pest or weed control at 2241.7 g/ha ([19]; 2 lb/A)?
**A.** 60%

**Q.** And the pest or weed control at 2241.7 g/ha ([20]; 2 lb/A)?
**A.** 0%

**Q.** How did the pest or weed control at 4483.4 g/ha ([1]; 4 lb/A) turn out when `CCOC(=O)C(C)Oc1ccc([S+]([O-])c2ccc(C(F)(F)F)cc2)cc1` (stereo not shown) [Example 51] was run?
**A.** 0%

**Q.** What about the pest or weed control at 4483.4 g/ha ([2]; 4 lb/A) of the same compound?
**A.** 0%

**Q.** And the pest or weed control at 4483.4 g/ha ([3]; 4 lb/A)?
**A.** 0%

**Q.** And the pest or weed control at 4483.4 g/ha ([4]; 4 lb/A)?
**A.** 0%

**Q.** What about the pest or weed control at 4483.4 g/ha ([5]; 4 lb/A) of the same compound?
**A.** 0%

**Q.** What about the pest or weed control at 4483.4 g/ha ([6]; 4 lb/A) of the same compound?
**A.** 0%

**Q.** And the pest or weed control at 4483.4 g/ha ([7]; 4 lb/A)?
**A.** 0%

**Q.** What about the pest or weed control at 4483.4 g/ha ([8]; 4 lb/A) of the same compound?
**A.** 0%

**Q.** What about the pest or weed control at 4483.4 g/ha ([9]; 4 lb/A) of the same compound?
**A.** 0%

**Q.** And the pest or weed control at 4483.4 g/ha ([10]; 4 lb/A)?
**A.** 0%

**Q.** What about the pest or weed control at 4483.4 g/ha ([11]; 4 lb/A) of the same compound?
**A.** 0%

**Q.** And the pest or weed control at 4483.4 g/ha ([12]; 4 lb/A)?
**A.** 0%

**Q.** What about the pest or weed control at 4483.4 g/ha ([13]; 4 lb/A) of the same compound?
**A.** 0%

**Q.** What about the pest or weed control at 4483.4 g/ha ([14]; 4 lb/A) of the same compound?
**A.** 20%

**Q.** And the pest or weed control at 4483.4 g/ha ([15]; 4 lb/A)?
**A.** 0%

**Q.** And the pest or weed control at 4483.4 g/ha ([16]; 4 lb/A)?
**A.** 0%

**Q.** And the pest or weed control at 4483.4 g/ha ([17]; 4 lb/A)?
**A.** 0%

**Q.** What about the pest or weed control at 4483.4 g/ha ([18]; 4 lb/A) of the same compound?
**A.** 0%

**Q.** What about the pest or weed control at 4483.4 g/ha ([19]; 4 lb/A) of the same compound?
**A.** 20%

**Q.** And the pest or weed control at 4483.4 g/ha ([20]; 4 lb/A)?
**A.** 0%
